Assay results from US5371070A, “Bicyclic GnRH antagonists and a method for regulating the secretion of gonadotropins” (The Salk Institute for Biological Studies, priority 1992, dated 1994).
Positions of bridges follow the written chain, without caps; N, C: chain ends. Non-standard residues stand in square brackets, D forms with d. Residues, ends and D or L forms follow the SMILES beside them. Phe(4-Cl) = N[C@@H](Cc1ccc(Cl)cc1)C(=O)O; dPhe(4-Cl) = N[C@H](Cc1ccc(Cl)cc1)C(=O)O; 2Nal = N[C@@H](Cc1ccc2ccccc2c1)C(=O)O; d2Nal = N[C@H](Cc1ccc2ccccc2c1)C(=O)O; d3Pal = N[C@H](Cc1cccnc1)C(=O)O; Orn = NCCC[C@H](N)C(=O)O; Dab = NCC[C@H](N)C(=O)O; Dap = NC[C@H](N)C(=O)O; βAla = NCCC(=O)O; Sar = CNCC(=O)O

System: ovulation in mature female Sprague-Dawley rats
Assay: rat anti-ovulation assay (in vivo)
Conditions: for Rats Ovulating: injected about noon on day of proestrus, rats ovulating/rats treated
From the text: These improved bicyclic GnRH antagonists are generally characterized by a substantial ability to suppress the secretion of LH in a standard rat pituitary cell assay when administered together with a concentration of 3 nanomolar GnRH, the details of which assay are set forth in Rivier and Vale, Life Sciences, 23, 869-876 (1978). By substantial ability is meant that, at a concentration of GnRH antagonist to GnRH of about 2/1 or less, the amount of LH secreted is reduced by 50% (IDR50). Moreover, when tested in vivo in the standard rat anti-ovulation assay (Corbin et al. Endocrine Res. Commun., 2, 1 (1975)), these GnRH antagonists show complete blockage of ovulation when administered at about 200 μg or less per kilogram of body weight.
In vivo testing determines effectiveness to prevent ovulation in female rats. In this test, a specified number of mature female Sprague-Dawley rats, e.g. usually five to ten, each having a body weight from about 225 to 250 grams, is injected with a specified microgram dosage of peptide in either saline or bacteriostatic water at about noon on the day of proestrus. Proestrus is the afternoon […]. A separate female rat group is used as a control to which the peptide is not administered. Each of the control female rats ovulates on the evening of proestrus, and the number of the treated rats which ovulate is recorded. The results are set forth in the following Table A, wherein the dosages stated are in micrograms per rat.

| SMILES | Rats Ovulating (dosage 2.5 micrograms per rat) | Rats Ovulating (dosage 5 micrograms per rat) | Rats Ovulating (dosage 10 micrograms per rat) | also measured |
| --- | --- | --- | --- | --- |
| CC(=O)N[C@H](Cc1ccc2ccccc2c1)C(=O)N[C@H](Cc1ccc(Cl)cc1)C(=O)N[C@H](Cc1cccnc1)C(=O)N[C@H]1CC(=O)NC[C@@H](C(N)=O)NC(=O)[C@@H]2CCCN2C(=O)[C@@H]2CCNC(=O)[C@H](CCCNC(=N)N)NC(=O)CC[C@H](NC1=O)C(=O)N[C@H](CCCNC(=N)N)C(=O)N[C@@H](CC(C)C)C(=O)N2 [Peptide 1, (Cyclo 4-10,5,5'-8)[Ac-β-D-2NAL^1, (4Cl)D--Phe^2, D-3PAL^3, Asp^4, Glu^5 (Arg), D--Arg^6, Dbu^8, Dpr^10]-GnRH] (Ac-[d2Nal][dPhe(4-Cl)][d3Pal]DE[dR]L[Dab]P[Dap]-NH2; lactam 4-10; linker 5-8 via R) | 0/4 |  |  | effectiveness to prevent ovulation of female rats (at a very low dosage): significantly effective; Rats Ovulating (dosage 1.0 micrograms per rat): 2/11; dose considered totally effective to prevent ovulation (female rats): about 50 micrograms per Kg of body weight; dose at which it should likely be effective to prevent ovulation (female rats, stated as likely): about 5 μg/Kg |
| CC(=O)N[C@H](Cc1ccc2ccccc2c1)C(=O)N[C@H](Cc1ccc(Cl)cc1)C(=O)N[C@H](Cc1cccnc1)C(=O)N[C@H]1CC(=O)NC[C@@H](C(N)=O)NC(=O)[C@@H]2CCCN2C(=O)[C@@H]2CCNC(=O)CNC(=O)CC[C@H](NC1=O)C(=O)N[C@H](CCCNC(=N)N)C(=O)N[C@@H](CC(C)C)C(=O)N2 [Peptide 2] (Ac-[d2Nal][dPhe(4-Cl)][d3Pal]DE[dR]L[Dab]P[Dap]-NH2; lactam 4-10; linker 5-8 via G) | 6/8 | 2/8 | 1/6 | Rats Ovulating (dosage 25 micrograms per rat): 0/3 |
| CC(=O)N[C@H](Cc1ccc2ccccc2c1)C(=O)N[C@H](Cc1ccc(Cl)cc1)C(=O)N[C@H](Cc1cccnc1)C(=O)N[C@H]1CC(=O)NC[C@@H](C(N)=O)NC(=O)[C@@H]2CCCN2C(=O)[C@@H]2CCNC(=O)CNC(=O)C[C@H](NC1=O)C(=O)N[C@H](CCCNC(=N)N)C(=O)N[C@@H](CC(C)C)C(=O)N2 [Peptide 3] (Ac-[d2Nal][dPhe(4-Cl)][d3Pal]DD[dR]L[Dab]P[Dap]-NH2; lactam 4-10; linker 5-8 via G) |  |  | 4/6 | Rats Ovulating (dosage 25 micrograms per rat): 0/5 |
| CC(=O)N[C@H](Cc1ccc2ccccc2c1)C(=O)N[C@H](Cc1ccc(Cl)cc1)C(=O)N[C@H](Cc1cccnc1)C(=O)N[C@H]1CC(=O)NC[C@@H](C(N)=O)NC(=O)[C@@H]2CCCN2C(=O)[C@@H]2CCNC(=O)CCNC(=O)C[C@H](NC1=O)C(=O)N[C@H](CCCNC(=N)N)C(=O)N[C@@H](CC(C)C)C(=O)N2 [Peptide 4] (Ac-[d2Nal][dPhe(4-Cl)][d3Pal]DD[dR]L[Dab]P[Dap]-NH2; lactam 4-10; linker 5-8 via βAla) | 9/14 | 7/10 | 4/5 |  |
| CC(=O)N[C@H](Cc1ccc2ccccc2c1)C(=O)N[C@H](Cc1ccc(Cl)cc1)C(=O)N[C@H](Cc1cccnc1)C(=O)N[C@H]1CC(=O)NC[C@@H](C(N)=O)NC(=O)[C@@H]2CCCN2C(=O)[C@@H]2CCNC(=O)CN(C)C(=O)CC[C@H](NC1=O)C(=O)N[C@H](CCCNC(=N)N)C(=O)N[C@@H](CC(C)C)C(=O)N2 [Peptide 5] (Ac-[d2Nal][dPhe(4-Cl)][d3Pal]DE[dR]L[Dab]P[Dap]-NH2; lactam 4-10; linker 5-8 via Sar) |  |  | 4/9 |  |
| CC(=O)N[C@H](Cc1ccc2ccccc2c1)C(=O)N[C@H](Cc1ccc(Cl)cc1)C(=O)N[C@H](Cc1cccnc1)C(=O)N[C@H]1CC(=O)NC[C@@H](C(N)=O)NC(=O)[C@@H]2CCCN2C(=O)[C@@H]2CNC(=O)[C@H](Cc3ccccc3)NC(=O)CC[C@H](NC1=O)C(=O)N[C@H](CCCNC(=N)N)C(=O)N[C@@H](CC(C)C)C(=O)N2 [Peptide 6] (Ac-[d2Nal][dPhe(4-Cl)][d3Pal]DE[dR]L[Dap]P[Dap]-NH2; lactam 4-10; linker 5-8 via F) |  |  | 6/8 |  |
| CC(=O)N[C@H](Cc1ccc2ccccc2c1)C(=O)N[C@H](Cc1ccc(Cl)cc1)C(=O)N[C@H](Cc1cccnc1)C(=O)N[C@H]1CC(=O)NC[C@@H](C(N)=O)NC(=O)[C@@H]2CCCN2C(=O)[C@@H]2CCNC(=O)[C@H](Cc3ccccc3)NC(=O)CC[C@H](NC1=O)C(=O)N[C@H](CCCNC(=N)N)C(=O)N[C@@H](CC(C)C)C(=O)N2 [Peptide 7] (Ac-[d2Nal][dPhe(4-Cl)][d3Pal]DE[dR]L[Dab]P[Dap]-NH2; lactam 4-10; linker 5-8 via F) | 3/10 | 1/8 | 0/9 | Rats Ovulating (dosage 1.0 micrograms per rat): 4/7 |
| CC(=O)N[C@H](Cc1ccc2ccccc2c1)C(=O)N[C@H](Cc1ccc(Cl)cc1)C(=O)N[C@H](Cc1cccnc1)C(=O)N[C@H]1CC(=O)NC[C@@H](C(N)=O)NC(=O)[C@@H]2CCCN2C(=O)[C@@H]2CCCNC(=O)[C@H](Cc3ccccc3)NC(=O)CC[C@H](NC1=O)C(=O)N[C@H](CCCNC(=N)N)C(=O)N[C@@H](CC(C)C)C(=O)N2 [Peptide 8] (Ac-[d2Nal][dPhe(4-Cl)][d3Pal]DE[dR]L[Orn]P[Dap]-NH2; lactam 4-10; linker 5-8 via F) |  |  | 5/5 | Rats Ovulating (dosage 25 micrograms per rat): 0/8 |
| CC(=O)N[C@H](Cc1ccc2ccccc2c1)C(=O)N[C@H](Cc1ccc(Cl)cc1)C(=O)N[C@H](Cc1cccnc1)C(=O)N[C@H]1CC(=O)NC[C@@H](C(N)=O)NC(=O)[C@@H]2CCCN2C(=O)[C@@H]2CCNC(=O)[C@H](Cc3ccccc3)NC(=O)C[C@H](NC1=O)C(=O)N[C@H](CCCNC(=N)N)C(=O)N[C@@H](CC(C)C)C(=O)N2 [Peptide 9] (Ac-[d2Nal][dPhe(4-Cl)][d3Pal]DD[dR]L[Dab]P[Dap]-NH2; lactam 4-10; linker 5-8 via F) |  |  | 0/4 |  |
| CC(=O)N[C@H](Cc1ccc2ccccc2c1)C(=O)N[C@H](Cc1ccc(Cl)cc1)C(=O)N[C@H](Cc1cccnc1)C(=O)N[C@H]1CC(=O)NC[C@@H](C(N)=O)NC(=O)[C@@H]2CCCN2C(=O)[C@@H]2CCCNC(=O)[C@H](Cc3ccccc3)NC(=O)C[C@H](NC1=O)C(=O)N[C@H](CCCNC(=N)N)C(=O)N[C@@H](CC(C)C)C(=O)N2 [Peptide 10] (Ac-[d2Nal][dPhe(4-Cl)][d3Pal]DD[dR]L[Orn]P[Dap]-NH2; lactam 4-10; linker 5-8 via F) | 6/6 | 0/4 |  |  |
| CC(=O)N[C@H](Cc1ccc2ccccc2c1)C(=O)N[C@H](Cc1ccc(Cl)cc1)C(=O)N[C@H](Cc1cccnc1)C(=O)N[C@H]1CC(=O)NC[C@@H](C(N)=O)NC(=O)[C@@H]2CCCN2C(=O)[C@@H]2CCNC(=O)[C@H](Cc3ccc4ccccc4c3)NC(=O)CC[C@H](NC1=O)C(=O)N[C@H](CCCNC(=N)N)C(=O)N[C@@H](CC(C)C)C(=O)N2 [Peptide 11] (Ac-[d2Nal][dPhe(4-Cl)][d3Pal]DE[dR]L[Dab]P[Dap]-NH2; lactam 4-10; linker 5-8 via 2Nal) |  | 1/7 | 0/4 |  |
| CC(=O)N[C@H](Cc1ccc2ccccc2c1)C(=O)N[C@H](Cc1ccc(Cl)cc1)C(=O)N[C@H](Cc1cccnc1)C(=O)N[C@H]1CC(=O)NC[C@@H](C(N)=O)NC(=O)[C@@H]2CCCN2C(=O)[C@@H]2CCNC(=O)[C@H](Cc3c[nH]cn3)NC(=O)CC[C@H](NC1=O)C(=O)N[C@H](CCCNC(=N)N)C(=O)N[C@@H](CC(C)C)C(=O)N2 [Peptide 12] (Ac-[d2Nal][dPhe(4-Cl)][d3Pal]DE[dR]L[Dab]P[Dap]-NH2; lactam 4-10; linker 5-8 via H) | 3/8 |  |  | Rats Ovulating (dosage 1.0 micrograms per rat): 4/4 |
| CC(=O)N[C@H](Cc1ccc2ccccc2c1)C(=O)N[C@H](Cc1ccc(Cl)cc1)C(=O)N[C@H](Cc1cccnc1)C(=O)N[C@H]1CC(=O)NC[C@@H](C(N)=O)NC(=O)[C@@H]2CCCN2C(=O)[C@@H]2CCNC(=O)[C@H](Cc3ccc(Cl)cc3)NC(=O)CC[C@H](NC1=O)C(=O)N[C@H](CCCNC(=N)N)C(=O)N[C@@H](CC(C)C)C(=O)N2 [Peptide 14] (Ac-[d2Nal][dPhe(4-Cl)][d3Pal]DE[dR]L[Dab]P[Dap]-NH2; lactam 4-10; linker 5-8 via Phe(4-Cl)) | 3/4 | 0/6 |  |  |
